Experimental data from patent publication EP4311580A1, “AMINOACID-FLUORIDE SALTS FOR MOUTH HYGIENE” (Schäfer, Rolf, priority 2022, dated 2024).
Read-outs that look alike come from different tables or passages of the source.

What was measured:
[1] = test system: MG-63 osteoblast cells; assay: Time to confluence of MG-63 osteoblast cells in tissue culture with fluoride compounds in the medium; details: for Time to confluence / Time to confluence (days): compounds at 1400ppm fluoride in cell growth media, 5x10cm tissue culture flasks, control without fluoride 4-5 days; for effect on osteoblast cells in culture (lysis / influence on growth / toxicity) / inhibition of cell growth: MG-63 osteoblasts; for effect on osteoblast cells in culture (lysis / influence on growth / toxicity): 1400ppm fluoride, result in words; for inhibition of cell growth: 1400ppm fluoride concentration, relative to control
[2] = test system: MG-63 osteoblast cells

Row | Molecule | Time to confluence [1] [days] | effect on osteoblast cells in culture (lysis / influence on growth / toxicity) [1] | also measured
1 | CCOC(=O)[C@H](C)N.F.N [Alanine-O-ethylester-ammoniumfluoride] | 5 to 6 | – | –
2 | CCCCCCCCC=CCCCCCCCCN.F [Dectaflur, 9-octadecenylamine-hydrofluoride, reference compound] | – | lysing (dissolving the membrane) osteoblast cells | Time to confluence (days) [1]: cell lysis
3 | F.F.N.N.N[C@@H](Cc1c[nH]cn1)C(=O)O [Histidine-ammonium-difluoride] | 7 to 8 | – | –
4 | CCOC(=O)[C@@H](N)CCCCN [Lysine-O-ethylester-ε-ammoniumdifluoride] | – | – | Time to confluence [2]: 5 to 6 days
5 | NCCCCC(N)C(=O)O (stereo not shown) [Lysine-ε-ammonium-fluoride] | – | no influence of growth on osteoblasts | Time to confluence [2]: 4 to 5 days; inhibition of cell growth [1]: no inhibition at all
6 | CCCCCCCCCCCCCCCCCCN(CCO)CCCN(CCO)CCO [Olaflur, reference compound] | – | lysing (dissolving the membrane) osteoblast cells | Time to confluence (days) [1]: cell lysis
7 | CCCCCCCCCCCCOS(=O)(=O)[O-].[Na+] [Sodium laurylsulfate (SDS), Sodium laurylsulfate, reference compound] | – | lysing (dissolving the membrane) osteoblast cells | Time to confluence (days) [2]: cell lysis
8 | NC(Cc1c[nH]c2ccccc12)C(=O)O (stereo not shown) [Tryptophan-N-ammonium-mono-hydrofluoride] | 5 to 6 | – | –
9 | CCOC(=O)[C@@H](N)Cc1c[nH]c2ccccc12 [Tryptophan-O-ethylester-N,N'-ammoniumdifluoride] | 8 to 9 | – | –
10 | CCOC(=O)[C@@H](N)Cc1ccc(O)cc1.F.N [Tyrosine-O-ethylester-ammoniumfluoride] | 5 to 6 | – | –
11 | Decalysine-ε-ammonium-decafluoride | 8 to 9 | – | inhibition of cell growth [1]: 40-50%
12 | Potassium fluoride [reference compound] | – | – | Time to confluence [2]: 6 to 7 days
13 | sodium fluoride [reference compound] | – | – | inhibition of cell growth [1]: 20%
